Experimental data reported in PMC7900953, “Location of a single histidine within peptide carriers increases mRNA delivery” (The Journal of Gene Medicine, 2020).

Legend:
[1] = cited from earlier work
[2] = system: MDA‐MB‐231 cells; assay: In vitro transfection of luciferase-expressing mRNA with HK polyplexes; format: cell-based; conditions: for Effectiveness as carrier of mRNA: luciferase mRNA polyplexes; for Luciferase activity, RLU/µg-Protein: polyplex in Opti-MEM on cells 4 h, then DMEM/10% serum, luciferase 24 h later, mean ± SD
Description: Several HK peptides were examined for their ability to carry a luciferase‐expressing mRNA (CleanCap Firefly Luciferase mRNA; Trilink Biotechnologies, Inc., San Diego, CA, USA) into MDA‐MB‐231 cells (America Type Tissue Culture, Manassas, VA, USA). In brief, 3 × 10^4 cells were plated into a 24‐well plate containing 500 μl of Dulbecco’s modified Eagle’s medium (DMEM) and 10% fetal bovine serum (Thermo Fisher Scientific, Waltham, MA, USA). After 24 hours, when the cells were 60–80% confluent, the media in each well was changed to Opti‐MEM (Thermo Fisher Scientific). To prepare HK polyplexes, mRNA (1 μg) in 50 μl of Opti‐MEM was briefly mixed well with one of the HK peptides (4–12 μg) and maintained at room temperature for 30 minutes. This polyplex was then added dropwise to the cells. After 4 hours, the Opti‐MEM media was removed and replaced with 0.5 ml of DMEM/10% serum. Twenty‐four hours later, the cells were lysed, and luciferase activity (Promega Corporation, Madison, WI, USA) was measured. ^28 Also, a negative control (mRNA without the carrier) was added to the cells and luciferase activity measured 24 hours later.
FIGURE 1 Comparison of H3K(+H)4b and H3K4b peptides as carriers of mRNA. To form polyplexes, the mRNA (1 μg) was mixed with three different ratios of the HK (4, 8 and 12 μg) polymer for 30 minutes. The mRNA polyplexes were then added to the cells as described in the Materials and methods, and luciferase activity was measured 24 hours later. ***p < 0.001; ****p < 0.0001, H3K(+H)4b versus H3K4b
FIGURE 6 Comparing H3K(+H)4b and other four‐branched HK peptides for mRNA transfection. After polyplexes were formed with HK peptides (4 μg) and luciferase‐expressing mRNA (1 μg) and added to cells, luciferase activity was measured […] later. These HK peptides contained an additional histidine in the second motif.
FIGURE 7 Comparison of H3K(+H)4b with branched peptides without an additional histidine in the second motif. Polyplexes were formed with mRNA (1 μg) and various HK peptides (4 μg) and, after their addition to cells, luciferase activity was determined 24 h later. H3K(1+H)4b and H3K(3+H)4b peptides have an extra histidine in the first and third domains, respectively. H3K(1,3+H)4b has two additional histidines: one in the first and the other third motif. […] Unlike H3K(+H)4b, the predominant repeating motif of H2K4b in its branch is ‐HHK. ***p < 0.001, H3K(+H)4b versus H2K4b or H3K(1,3+H)4b; ****p < 0.0001, H3K(+H)4b versus H3K(1+H)4b or H3K(3+H)4b motifs
To prepare HK polyplexes, luciferase-expressing mRNA (1 µg) in 50 µl of Opti-MEM was briefly mixed with one of the HK peptides (4, 8, or 12 µg) and maintained at room temperature for 30 min. This polyplex was then added dropwise to the MDA-MB-231 cells and after four h, the Opti-MEM media was removed and replaced with DMEM/10% serum. Twenty-four hours later, luciferase activity was measured.

[3] = system: MDA‐MB‐231 cells; assay: In vitro uptake of HK polyplexes by fluorescence microscopy; format: cell-based; conditions: HK:mRNA 4:1; for Aggregates of polyplexes seen by fluorescence microscopy: 4 hours after transfection
Description: With the mRNA labeled with Cy5, HK polyplexes at a ratio of 4:1 (HK:mRNA) were prepared as described for in vitro transfection. The labeled polyplexes were incubated with MDA‐MB‐231 cells for four hours in Opti‐MEM. After the cells were washed with phosphate‐buffered saline (PBS) (Quality Biologicals, Gaithersburg, MD, USA), they were incubated for 30 minutes with LysoTracker Green DND‐26 (Cell Signaling Technology, Inc., Danvers, MA, USA), a dye that stains acidic endosomes and lysosomes. Then after the cells were washed twice with PBS and once with 1% Triton‐X, they were fixed (4% formalin/1% glutaraldehyde) and the nuclei were stained with chromatin dye Hoechst 33342 (Invitrogen, Carlsbad, CA, USA). Images were obtained with a Nikon TE2000‐S (Nikon, Tokyo, Japan) with a mercury lamp light source usng the filter sets: Ex‐357(20)/Em‐460(60) (Hoechst); Ex‐480(30)/Em‐535(45) (Lysotracker green DND‐26); Ex‐620(50)/Em‐690(50) (Cy5‐labeled‐mRNA). Red/green ratios were measured on 20 intracellular acidic vesicles (one per cell) using ImageJ, version 1.52. ^42
FIGURE 5 Fluorescence images of different mRNA polyplexes within acidic vesicles of MDA‐MB‐231 cells. (A) Four hours after transfection with labeled mRNA by H3K(+H)4b (upper) or H3K4b (lower) carriers, intracellular acidic vesicles were stained with Lysotracker green. The cells were then fixed, and the nuclei were stained with Hoesch 33342 dye. Images were obtained with a Nikon TE2000‐S using a mercury lamp light source and the filter sets delineated in the Materials and methods (green, acidic vesicles; red, cynanine 5‐labeled mRNA; blue, nuclei labeled with Hoescht dye). […] Arrows indicate the irregularly shaped mRNA aggregates frequently observed with H3K4b carrier. (B) Analysis of the amount of HK (H3K4b or H3K(+H)4b) polyplexes within acidic endosomal vesicles of MDA‐MB‐231 cells. Images of HK polyplexes labeled with cyanine5 (red emission) were imported into endosomal vesicles (green emission). The red/green ratios were measured on 20 intracellular acidic vesicles using ImageJ. […]

[4] = Particle size, polydispersity index (PDI) and zeta potential of polyplexes (dynamic light scattering); format: physicochemical; conditions: HK peptide (4 μg) + mRNA (1 μg), 25°C; for Zeta potential of polyplex / Size of polyplex: mean ± SD of three measurements; for Size of polyplex: DLS 90°, z‐average; for PDI of polyplex: DLS
Description: The size, PDI and zeta potential were determined with the Zetasizer (Malvern, Westborough, MA, USA) and analyzed with Zetasizer, version 6.2 (Malvern). Using dynamic light scattering at a 90° angle, the size of the particles were reported as the z‐average diameter from the intensity‐weighted size distribution. Prior to the measurements, the samples were equilibrated to 25°C for 2 minutes. Each measurement had at least 10 sub‐runs under the automatic mode of the software. The particle size, PDI and zeta potential data point represent the mean ± SD of three measurements. After mixing HK peptides (4 μg) and mRNA (1 μg) in 100 μl of defined media (Opti‐MEM, water, or DMEM/8% FBS) for 30 minutes, 100 μl of additional defined media was added to the polyplex solution (total volume 200 μl) to measure the size and PDI. To determine the zeta potential, 800 μl more of the media was added (total volume 1000 μl), mixed gently and then added to the disposable zeta cell.

[5] = ratio 1:4 (wt:wt; mRNA:polymer; 1 µg mRNA, 4 µg HK)
[6] = ratio 1:8 (wt:wt; mRNA:polymer; 1 µg mRNA, 8 µg HK)
[7] = ratio 1:12 (wt:wt; mRNA:polymer; 1 µg mRNA, 12 µg HK)

| Substance | Carrier of siRNA [1] | Luciferase expression relative to H3K4b peptide ([2]; fold greater, ratio 4:1 (HK:mRNA; w:w)) [fold] | Effectiveness as carrier of mRNA [2] | Luciferase activity, RLU/µg-Protein [2, 5] [RLU/µg-Protein] | Luciferase activity, RLU/µg-Protein [2, 6] [RLU/µg-Protein] | Luciferase activity, RLU/µg-Protein [2, 7] [RLU/µg-Protein] | Aggregates of polyplexes seen by fluorescence microscopy [3] | Localization of polyplexes within acidic endosomal vesicles ([3]; 4 hours in Opti‐MEM, red/green ratios on 20 vesicles, p < 0.001) | Zeta potential of polyplex ([4]; DMEM/8%FBS) [mV] | Size of polyplex ([4]; DMEM/8%FBS) [nm] | PDI of polyplex ([4]; DMEM/8%FBS) | Zeta potential of polyplex ([4]; Opti‐MEM) [mV] | Size of polyplex ([4]; Opti‐MEM) | PDI of polyplex ([4]; Opti‐MEM) | Zeta potential of polyplex ([4]; Water) [mV] | Size of polyplex ([4]; Water) [nm] | PDI of polyplex ([4]; Water) |
| --- | --- | --- | --- | --- | --- | --- | --- | --- | --- | --- | --- | --- | --- | --- | --- | --- | --- |
| R = KHHHKHHHKHHHHKHHHK [H3K(+H)4b, four‐branched analogue of H3K4b with one extra histidine in the second ‐HHHK‐ motif] | effective carriers of siRNA | 10 | effective carriers of mRNA | 1532.9±122.9 | 1656.3±202.5 | 1033.4±197 | not observed | localized within the acidic endosomal vesicles significantly more than H3K4b polyplexes | −12.7 ± 1.04 | 289 ± 38.2 | 0.307 | 2.92 ± 1.83 | 1,004 ± 61.1 nm | 0.362 | 20.77 ± 1.12 | 234.9 ± 2.7 | 0.212 |
| R = KHHHKHHHKHHHKHHHK [H3K4b, four‐branched histidine‐lysine peptide with four ‐HHHK‐ motifs in each branch] | effective carriers of siRNA | – | not effective carriers of mRNA | 156.8±41.8 | 62.1±13.2 | 18.1±4.0 | likely extracellular aggregates | – | −12.1 ± 2.22 | 578 ± 80.5 | 0.421 | −4.20 ± 2.78 | 2,030.7 ± 117.3 nm | 0.466 | 16.47 ± 0.74 | 199.9 ± 0.8 | 0.171 |
